Experimental data published in patent US20090048301A1 (IMCLONE SYSTEMS INCORPORATED, priority 2003, published 2009).

Test system: bovine tubulin
Experiment: In vitro tubulin polymerization assay (turbidity at 340 nm)
Type: biochemical
Conditions: 10 μM compound, 30 minute data point, vs 1% DMSO control
Procedure: Briefly, tubulin polymerization is a kinetic process that is temperature-dependent and requires GTP and was performed as follows. Soluble tubulin dimers polymerize into microtubules upon warming, and polymerization in vitro correlates with an increase in turbidity (measured at 340 nm). Lyophilized bovine tubulin (HTS Tubulin—97% tubulin, <3% MAPs—Cytoskeleton Inc.) was ressuspended in G-PEM buffer (80 mM PIPES pH 7, 1 mM EGTA, 1 mM MgCl2, 1 mM GTP, 5% glycerol) to a final concentration of 3 mg/ml and kept at 4° C. Compounds in 100× stock solutions in DMSO were dotted to pre-warmed 96-well plates (Corning Costar 3696), the plates were transferred to a 37° C. plate reader (SPECTRAmax Plus, Molecular Devices), cold tubulin was added to the wells, and the plates were shaken for mixing. The absorbance at 340 nm was determined at one minute intervals for 30 minutes. Kinetic curves with 30 points each were collected for each compound, and the dynamic range was between 0 and 0.4 OD units. The percentage inhibition values were calculated using the 30 minute data point and based on control samples (treated with 1% DMSO only). The assay is a modified version of the HTS kit sold by Cytoskeleton (1830 S. Acoma St., Denver, Colo.), adapted to maximize throughput and reduce time, without reduction in dynamic range or sensitivity, while retaining the ability to detect compounds that inhibit or enhance tubulin polymerization.
Tubulin polymerization is a kinetic process that is temperature-dependent and requires GTP. Soluble tubulin dimers polymerize into microtubules upon warming, and polymerization in vitro correlates with an increase in turbidity (measured at 340 nm). Liophilized bovine tubulin (HTS Tubulin—97% tubulin, <3% MAPs—Cytoskeleton Inc.) was ressuspended in G-PEM buffer (80 mM PIPES pH 7, 1 mM EGTA, 1 mM MgCl2, 1 mM GTP, 5% glycerol) to a final concentration of 3 mg/ml and kept at 4° C. Compounds in 100× stock solutions in DMSO were dotted to pre-warmed 96-well plates (Corning Costar 3696), the plates were immediately transferred to a 37° C. plate reader (SPECTRAmax Plus, Molecular Devices), cold tubulin was added to the wells, plates were shaken for mixing, and absorbance at 340 nm was read every minute for 30 minutes. Kinetic curves with 30 points each were collected for each compound, and the dynamic range was between 0 and 0.4 OD units. Percentage inhibition values were calculated using the 30 minute data point, based on control samples (treated with 1% DMSO only). This assay is a modified version of the HTS kit sold by Cytoskeleton, adapted to maximize throughput and reduce time, without reduction in dynamic range or sensitivity, while retaining the ability to detect compounds that inhibit or enhance tubulin polymerization.

| Compound | Tubulin Assay: percent inhibition at 10 μM based on 30 minute data [%] |
| --- | --- |
| c1ccc(-c2nnc(Nc3ccc4c(c3)OCO4)[nH]2)c(NCc2ccc3[nH]cnc3c2)c1 [Compound 118, Benzo[1,3]dioxol-5-yl-(5-{2-[(1H-benzoimidazol-5-ylmethyl)-amino]-phenyl}-4H-[1,2,4]triazol-3-yl)-amine] | 41 |
| COc1cccc(Nc2nc(-c3cccnc3NCc3ccncc3)nn2C)c1 [Compound 69, {3-[5-(3-Methoxy-phenylamino)-1-methyl-1H-[1,2,4]triazol-3-yl]-pyridin-2-yl}-pyridin-4-ylmethyl-amine] | 29 |
| COc1cc(Nc2ncccc2-c2nnc(-c3ccc4c(c3)OCO4)[nH]2)cc(OC)c1 [Compound 93, [3-(5-Benzo[1,3]dioxol-5-yl-4H-[1,2,4]triazol-3-yl)-pyridin-2-yl]-(3,5-dimethoxy-phenyl)-amine] | 28 |
| Nc1ccccc1-c1nnc(Nc2ccc3c(c2)OCO3)o1 [Compound 237a, [5-(2-Amino-phenyl)-[1,3,4]oxadiazol-2-yl]-benzo[1,3]dioxol-5-yl-amine] | 53 |
| COc1cc(Nc2ncccc2-c2nc(Nc3ccc4c(c3)OCCO4)n(C)n2)cc(OC)c1 [Compound 67, {3-[5-(2,3-Dihydro-benzo[1,4]dioxin-6-ylamino)-1-methyl-1H-[1,2,4]triazol-3-yl]-pyridin-2-yl}-(3,5-dimethoxy-phenyl)-amine] | 76 |
| CS(=O)(=O)c1ccc(-c2nnc(-c3ccccc3NCC3CCOC3)[nH]2)cc1 (centres unmarked) [Compound 134, {2-[5-(4-Methanesulfonyl-phenyl)-4H-[1,2,4]triazol-3-yl]-phenyl}-(tetrahydro-furan-3-ylmethyl)-amine] | 34 |
| c1ccc(-c2nnc(Nc3ccc4c(c3)OCCO4)o2)c(NCc2ccc3[nH]ncc3c2)c1 [Compound 222, (2,3-Dihydro-benzo[1,4]dioxin-6-yl)-(5-{2-[(1H-indazol-5-ylmethyl)-amino]-phenyl}-[1,3,4]oxadiazol-2-yl)-amine] | 95 |
| COc1cc(CNc2ccccc2-c2nnc(-c3cccc(Br)c3)[nH]2)cc(OC)c1 [Compound 151, {2-[5-(3-Bromo-phenyl)-4H-[1,2,4]triazol-3-yl]-phenyl}-(3,5-dimethoxy-benzyl)-amine] | 42 |
| FC(F)(F)c1cccc(-c2nnc(-c3ccccc3NCc3ccc4c(c3)OCO4)[nH]2)c1 [Compound 152, Benzo[1,3]dioxol-5-ylmethyl-{2-[5-(3-trifluoromethyl-phenyl)-4H-[1,2,4]triazol-3-yl]-phenyl}-amine] | 73 |
| COc1cccc(Nc2nc(-c3cccnc3Nc3cc(OC)cc(OC)c3)nn2C)c1 [Compound 66, (3,5-Dimethoxy-phenyl)-{3-[5-(3-methoxy-phenylamino)-1-methyl-1H-[1,2,4]triazol-3-yl]-pyridin-2-yl}-amine] | 73 |
| CS(=O)(=O)c1ccc(-c2nnc(-c3cccnc3NCCc3c[nH]cn3)[nH]2)cc1 [Compound 91, [2-(1H-Imidazol-4-yl)-ethyl]-{3-[5-(4-methanesulfonyl-phenyl)-4H-[1,2,4]triazol-3-yl]-pyridin-2-yl}-amine] | 29 |
| COc1cccc(Nc2ncc(-c3ccccc3OCc3cccnc3)o2)c1 [Compound 257, (3-Methoxy-phenyl)-{5-[2-(pyridin-3-ylmethoxy)-phenyl]-oxazol-2-yl}-amine] | 27 |
| COc1cccc(-c2nnc(-c3cccnc3NCc3ccncc3)[nH]2)c1 [Compound 94, {3-[5-(3-Methoxy-phenyl)-4H-[1,2,4]triazol-3-yl]-pyridin-2-yl}-pyridin-4-ylmethyl-amine] | 43 |
| c1cncc(CCNc2ncccc2-c2nnc(Nc3ccc4c(c3)OCO4)o2)c1 [Compound 200, {3-[5-(Benzo[1,3]dioxol-5-ylamino)-[1,3,4]oxadiazol-2-yl]-pyridin-2-yl}-(2-pyridin-3-yl-ethyl)-amine] | 68 |
| Cn1nc(-c2cccnc2NCc2ccncc2)nc1Nc1ccc2c(c1)OCO2 [Compound 70, {3-[5-(Benzo[1,3]dioxol-5-ylamino)-1-methyl-1H-[1,2,4]triazol-3-yl]-pyridin-2-yl}-pyridin-4-ylmethyl-amine] | 32 |
| c1cncc(CCNc2ncccc2-c2nnc(Nc3ccc4c(c3)OCCO4)[nH]2)c1 [Compound 41, {3-[5-(2,3-Dihydro-benzo[1,4]dioxin-6-ylamino)-4H-[1,2,4]triazol-3-yl]-pyridin-2-yl}-(2-pyridin-3-yl-ethyl)-amine] | 23 |
| CN(C)c1ccc(-c2nnc(Nc3ccc4c(c3)OCCO4)o2)c(NCc2ccc(F)c(F)c2)c1 [Compound 233, {5-[2-(3,4-Difluoro-benzylamino)-4-dimethylamino-phenyl]-[1,3,4]oxadiazol-2-yl}-(2,3-dihydro-benzo[1,4]dioxin-6-yl)-amine] | 40 |
| c1cnc(NCC2CCCO2)c(-c2nnc(Nc3ccc4c(c3)OCO4)o2)c1 (centres unmarked) [Compound 174, {3-[5-(Benzo[1,3]dioxol-5-ylamino)-[1,3,4]oxadiazol-2-yl]-pyridin-2-yl}-(tetrahydro-furan-2-ylmethyl)-amine] | 64 |
| Cc1cc(C)cc(CS(=O)(=O)Nc2ccccc2-c2nnc(Nc3ccc4c(c3)OCO4)o2)c1 [Compound 240, N-{2-[5-(Benzo[1,3]dioxol-5-ylamino)-[1,3,4]oxadiazol-2-yl]-phenyl}-C-(3,5-dimethyl-phenyl)-methanesulfonamide] | 20 |
| Nc1ccccc1-c1nnc(Nc2ccc3c(c2)OCCO3)[nH]1 [Compound 127b, [5-(2-amino-phenyl)-4H-[1,2,4]triazol-3-yl]-(2,3-dihydro-benzo[1,4]dioxin-6-yl)-amine] | 20 |
| COc1cccc(Nc2nnc(-c3cccnc3NCC3COCCO3)[nH]2)c1 (centres unmarked) [Compound 46, [1,4]Dioxan-2-ylmethyl-{3-[5-(3-methoxy-phenylamino)-4H-[1,2,4]triazol-3-yl]-pyridin-2-yl}-amine] | 25 |
| O=[N+]([O-])c1cc(C(F)(F)F)ccc1-c1nnc(Nc2ccc3c(c2)OCO3)[nH]1 [Compound 124b] | 26 |
| FC(F)(F)Oc1cccc(-c2nnc(-c3ccccc3NCc3ccc4[nH]cnc4c3)[nH]2)c1 [Compound 144, (1H-Benzoimidazol-5-ylmethyl)-{2-[5-(3-trifluoromethoxy-phenyl)-4H-[1,2,4]triazol-3-yl]-phenyl}-amine] | 86 |
| c1ccc(-c2nnc(Nc3ccc4c(c3)OCCO4)o2)c(NCc2cnccn2)c1 [Compound 221] | 80 |
| COc1ccc(Nc2nnc(-c3ccccc3NCc3ccncc3)[nH]2)c(OC)c1 [Compound 114, (2,4-Dimethoxy-phenyl)-(5-{2-[(pyridin-4-ylmethyl)-amino]-phenyl}-4H-[1,2,4]triazol-3-yl)-amine] | 24 |
| CS(=O)(=O)c1ccc(-c2nnc(-c3cccnc3NCCc3cccnc3)[nH]2)cc1 [Compound 99, {3-[5-(4-Methanesulfonyl-phenyl)-4H-[1,2,4]triazol-3-yl]-pyridin-2-yl}-(2-pyridin-3-yl-ethyl)-amine] | 47 |
| COc1ccc(CNc2nnc(-c3cccnc3NCCCN3CCCC3=O)[nH]2)cc1 [Compound 57, 1-(3-{3-[5-(4-Methoxy-benzylamino)-4H-[1,2,4]triazol-3-yl]-pyridin-2-ylamino}-propyl)-pyrrolidin-2-one] | 22 |
| CS(=O)(=O)c1ccc(-c2nnc(-c3cccnc3NCc3cccc(F)c3)[nH]2)cc1 [Compound 107, (3-Fluoro-benzyl)-{3-[5-(4-methanesulfonyl-phenyl)-4H-[1,2,4]triazol-3-yl]-pyridin-2-yl}-amine] | 37 |
| FC(F)(F)c1ccc(-c2nnc(-c3ccccc3NCc3ccc4c(c3)OCCO4)[nH]2)cc1 [Compound 139, (2,3-Dihydro-benzo[1,4]dioxin-6-ylmethyl)-{2-[5-(4-trifluoromethyl-phenyl)-4H-[1,2,4]triazol-3-yl]-phenyl}-amine] | 21 |
